In paper PMC7064328 (Environmental Health Perspectives, 2020):

System: maternal liver
Assay: Maternal liver histopathology (H&E)
Assay type: in vivo, mouse (CD-1)
Conditions: for CA, any severity: % / CA, any severity: N / CA, marked: % / CA, marked: N / CA, minimal to mild: % / CA, minimal to mild: N / CA, moderate: % / CA, moderate: N / Focal regions of classic necrosis: % / Focal regions of classic necrosis: N / Increase in cell death: % / Increase in cell death: N / Increase in mitotic figures: % / Increase in mitotic figures: N / Vacuolation, any severity: % / Vacuolation, any severity: N / Vacuolation, mild: % / Vacuolation, mild: N / Vacuolation, minimal: % / Vacuolation, minimal: N / Vacuolation, moderate: % / Vacuolation, moderate: N: maternal liver
Description: From each uterus, first, viable embryos and their matched placentas were collected in succession within a horn and immediately snap frozen ( n=2–5 per litter ), and subsequent embryos were collected for growth measurements ( n=2–11 per litter ). Additional placentas were collected and placed in 4% paraformaldehyde (PFA) for histological analysis (Block 2 only). Amniotic fluid was collected by needle aspiration from litters euthanized at E11.5 and snap frozen in liquid nitrogen. Embryo livers were collected from litters euthanized at E17.5 and snap frozen in liquid nitrogen. Dam livers were weighed, a portion of the left lateral lobe was placed in 4% PFA for histology, and another portion of the same lobe was snap frozen in liquid nitrogen. A third liver section was obtained from Block 2 dams and fixed in McDowell and Trump’s fixative for electron microscopy (EM). Gross lesions were collected when observed and placed in 4% PFA for histology. Dam kidneys were removed, a cross section was prepared from the right kidney, a longitudinal section was prepared from the left kidney, and both sections were fixed in 4% PFA for histological analysis.
Dam livers, kidneys, and placentas were trimmed and embedded by the NIEHS Mouse Embryo Phenotyping Core. Tissues collected at necropsy were fixed in 4% PFA for 72 h and paraffin embedded, and 5-μm sections were prepared and stained with hematoxylin and eosin (H&E). Pathology was evaluated and a pathology review conducted by S.A.E. Diplomate American College of Veterinary Pathologists (DACVP). Pathology reviews were conducted as an informed approach analysis [e.g., nonblinded analysis; see Sills et al. ([2019])]. Select tissue slides were scanned using the AT2 Scanner (Aperio). Images were then captured for publication using the ImageScope software; version 12.3.0.5056 (Aperio). Serum and urine obtained from dams in Block 2 were analyzed using the AU480 clinical chemistry analyzer (Beckman Coulter Inc.). Reagents and calibration standards used to measure alkaline phosphatase (ALP), alanine aminotransferase (ALT), aspartate aminotransferase (AST), blood urea nitrogen (BUN), serum creatinine, urine creatinine, glucose (Glu), total protein (TP), triglyceride (Trig), high-density lipoprotein (HDL), cholesterol (Chol), and albumin (ALB) were purchased from Beckman Coulter Inc. Reagents for sorbitol dehydrogenase (SDH), total bile acid (TBA), and micro-TP were purchased from Sekisui Diagnostics. The reagent used to measure low-density lipoprotein (LDL) was purchased form Diazyme Laboratories.

## N.O=C(O)C(F)(OC(F)(F)C(F)(F)C(F)(F)F)C(F)(F)F (centres unmarked) [GenX, ammonium 2,3,3,3-tetrafluoro-2-(heptafluoropropoxy)propanoate]
All dose groups, E11.5 and E17.5
  Incidence of livers with adverse outcomes including cytoplasmic alteration: 100%
E11.5, 2 mg/kg/d
  CA, any severity: %: 100%
  CA, any severity: N: 5
  CA, marked: %: 0%
  CA, marked: N: 0
  CA, minimal to mild: %: 100%
  CA, minimal to mild: N: 5
  CA, moderate: %: 0%
  CA, moderate: N: 0
  Focal regions of classic necrosis: %: 0%
  Focal regions of classic necrosis: N: 0
  Increase in cell death: %: 80%
  Increase in cell death: N: 4
  Increase in mitotic figures: %: 60%
  Increase in mitotic figures: N: 3
  Vacuolation, any severity: %: 0%
  Vacuolation, any severity: N: 0
  Vacuolation, mild: %: 0%
  Vacuolation, mild: N: 0
  Vacuolation, minimal: %: 0%
  Vacuolation, minimal: N: 0
  Vacuolation, moderate: %: 0%
  Vacuolation, moderate: N: 0
E11.5, 10 mg/kg/d
  CA, any severity: %: 100%
  CA, any severity: N: 5
  CA, marked: %: 60%
  CA, marked: N: 3
  CA, minimal to mild: %: 0%
  CA, minimal to mild: N: 0
  CA, moderate: %: 40%
  CA, moderate: N: 2
  Focal regions of classic necrosis: %: 20%
  Focal regions of classic necrosis: N: 1
  Increase in cell death: %: 60%
  Increase in cell death: N: 3
  Increase in mitotic figures: %: 80%
  Increase in mitotic figures: N: 4
  Vacuolation, any severity: %: 100%
  Vacuolation, any severity: N: 5
  Vacuolation, mild: %: 0%
  Vacuolation, mild: N: 0
  Vacuolation, minimal: %: 100%
  Vacuolation, minimal: N: 5
  Vacuolation, moderate: %: 0%
  Vacuolation, moderate: N: 0
E17.5, 2 mg/kg/d
  CA, any severity: %: 100%
  CA, any severity: N: 5
  CA, marked: %: 0%
  CA, marked: N: 0
  CA, minimal to mild: %: 40%
  CA, minimal to mild: N: 2
  CA, moderate: %: 60%
  CA, moderate: N: 3
  Focal regions of classic necrosis: %: 20%
  Focal regions of classic necrosis: N: 1
  Increase in cell death: %: 0%
  Increase in cell death: N: 0
  Increase in mitotic figures: %: 0%
  Increase in mitotic figures: N: 0
  Vacuolation, any severity: %: 0%
  Vacuolation, any severity: N: 0
  Vacuolation, mild: %: 0%
  Vacuolation, mild: N: 0
  Vacuolation, minimal: %: 0%
  Vacuolation, minimal: N: 0
  Vacuolation, moderate: %: 0%
  Vacuolation, moderate: N: 0
E17.5, 10 mg/kg/d
  CA, any severity: %: 100%
  CA, any severity: N: 5
  CA, marked: %: 100%
  CA, marked: N: 5
  CA, minimal to mild: %: 0%
  CA, minimal to mild: N: 0
  CA, moderate: %: 0%
  CA, moderate: N: 0
  Focal regions of classic necrosis: %: 20%
  Focal regions of classic necrosis: N: 1
  Increase in cell death: %: 100%
  Increase in cell death: N: 5
  Increase in mitotic figures: %: 0%
  Increase in mitotic figures: N: 0
  Vacuolation, any severity: %: 100%
  Vacuolation, any severity: N: 5
  Vacuolation, mild: %: 60%
  Vacuolation, mild: N: 3
  Vacuolation, minimal: %: 40%
  Vacuolation, minimal: N: 2
  Vacuolation, moderate: %: 0%
  Vacuolation, moderate: N: 0
